As a reminder, the inhibition is the drop in the measured response relative to a control, in per cent. A higher inhibition goes with a strong effect.

What all share (experiment): Kinobeads competition binding, HL60 cell lysate
Holding throughout (parameters): endogenous in cells
Common to all, as to conditions: 10 μM free compound

In one experiment the target is MAP3K3 (Homo sapiens, UniProt Q99759). As for the experimental part:
(§1) To one aliquot of cell lysate 10 μM of the free compound (FIG. 3, CZC31326) was added and allowed to bind to proteins in the lysate. Then the affinity matrix with the immobilized compound (Example 1) was added to capture proteins that were not interacting with the previously added free compound. Beads were separated from the lysate and bead bound proteins were eluted in SDS sample buffer and subsequently separated by SDS-Polyacrylamide gel electrophoresis (FIG. 4). Suitable gel bands were cut out and subjected to in-gel proteolytic digestion with trypsin. The second lysate aliquot was processed identically, however no free compound was added (DMSO solvent control). Peptides originating from samples 1 and 2 were labeled with iTRAQ reagents (iTRAQ 114 and iTRAQ 117) and the combined samples were analyzed with a nano-flow liquid chromatography system coupled online to a tandem mass spectrometer (LC-MS/MS) experiment followed by iTRAQ reporter ion quantification in the MS/MS spectra (Ross et al., 2004. Mol. Cell. Proteomics 3(12):1154-1169). Further experimental protocols can be found in WO2006/134056 and a previous publication (Bantscheff et al., 2007. Nature Biotechnology 25, 1035-1044). Sepharose-beads with the immobilized compound (100 μl beads per pull-down experiment) were equilibrated in lysis buffer and incubated with a cell lysate sample containing 50 mg of protein on an end-over-end shaker (Roto Shake Genie, Scientific Industries Inc.) for 2 hours at 4° C. Beads were collected, transferred to Mobicol-columns (MoBiTech 10055) and washed with 10 ml lysis buffer containing 0.4% NP40 detergent, followed by 5 ml lysis buffer containing 0.2% detergent. To elute bound proteins, 60 μl 2×SDS sample buffer was added to the column. The column was incubated for 30 minutes at 50° C. and the eluate was transferred to a siliconized microfuge tube by centrifugation. Proteins were then alkylated with 108 mM iodoacetamid. Proteins were then separated by SDS-Polyacrylamide electrophoresis (SDS-PAGE). The peptide extracts of samples treated with 10 μM of free compound (CZC31326) and the solvent control (0.5% DMSO) were treated with different variants of the isobaric tagging reagent (iTRAQ Reagents Multiplex Kit, part number 4352135, Applied Biosystems, Foster City, Calif., USA). The iTRAQ reagents are a set of multiplexed, amine-specific, stable isotope reagents that can label peptides on amino groups in up to four different biological samples enabling simultaneous identification and quantitation of peptides. The iTRAQ reagents were used according to instructions provided by the manufacturer. The samples were resuspended in 10 μl 50 mM TEAB solution, pH 8.5 and 10 μl ethanol were added. The iTRAQ reagent was dissolved in 120 μl ethanol and 10 μl of reagent solution were added to the sample. The labeling reaction was performed at room temperature for one hour on a horizontal shaker and stopped by adding 5 μl of 100 mM TEAB and 100 mM glycine in water. The two labeled sampled were then combined, dried in a vacuum centrifuge and resuspended in 10 μl of 0.1% formic acid in water. Relative protein quantitation was performed using peak areas of iTRAQ reporter ion signals essentially as described in an earlier publication (Bantscheff et al., 2007. Nature Biotechnology 25, 1035-1044).

A further experiment concerns the target Wee1 (Homo sapiens, UniProt P30291). As for the experimental part:
as §1

The target of the next experiment is PKCa (Homo sapiens, UniProt P17252). On the procedure: as §1
The next experiment deals with MLK4 (Homo sapiens, UniProt Q5TCX8). On the procedure: as §1
For the next experiment, the target named is T1, MST1 (Homo sapiens, UniProt Q13043).
T1 sequence (Q13043 1-487): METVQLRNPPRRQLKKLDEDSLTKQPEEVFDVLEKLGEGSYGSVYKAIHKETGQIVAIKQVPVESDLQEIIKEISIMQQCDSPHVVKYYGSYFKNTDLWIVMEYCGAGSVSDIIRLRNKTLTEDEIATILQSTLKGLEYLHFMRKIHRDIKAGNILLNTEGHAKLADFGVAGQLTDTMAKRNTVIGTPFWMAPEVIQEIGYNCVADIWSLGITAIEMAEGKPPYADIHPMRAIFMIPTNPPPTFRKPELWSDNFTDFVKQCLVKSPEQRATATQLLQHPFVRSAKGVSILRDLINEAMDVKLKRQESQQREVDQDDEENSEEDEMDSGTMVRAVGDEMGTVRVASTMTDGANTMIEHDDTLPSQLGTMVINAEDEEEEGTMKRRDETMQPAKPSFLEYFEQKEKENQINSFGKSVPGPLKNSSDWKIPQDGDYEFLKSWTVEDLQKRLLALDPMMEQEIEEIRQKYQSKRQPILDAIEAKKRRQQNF
On the procedure:
as §1

A further experiment has as its target JNK2 (Homo sapiens, UniProt P45984). As for the experimental part: as §1
In the next experiment the target is RSK2 (Homo sapiens, UniProt P51812). On the procedure:
as §1

In another experiment the target is MAP3K4 (Homo sapiens, UniProt Q9Y6R4). On the procedure: as §1
The target in a further experiment is AurB (Homo sapiens, UniProt Q96GD4). As for the experimental part: as §1
AurB, sequence (Q96GD4 whole entry): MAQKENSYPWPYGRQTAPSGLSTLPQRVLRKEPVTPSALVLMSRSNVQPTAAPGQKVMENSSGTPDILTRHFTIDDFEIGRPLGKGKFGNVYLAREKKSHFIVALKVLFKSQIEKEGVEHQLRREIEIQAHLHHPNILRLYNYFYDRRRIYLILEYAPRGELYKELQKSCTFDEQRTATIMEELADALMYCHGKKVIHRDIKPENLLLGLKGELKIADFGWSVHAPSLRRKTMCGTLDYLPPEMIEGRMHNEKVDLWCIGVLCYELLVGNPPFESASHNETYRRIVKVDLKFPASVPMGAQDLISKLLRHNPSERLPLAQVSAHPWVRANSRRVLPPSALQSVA
A further experiment addresses MLK3 (Homo sapiens, UniProt Q16584). As for the experimental part: as §1
The target of the next experiment is CK2a1 (Homo sapiens, UniProt P68400). As for the experimental part: as §1
CK2a1, sequence (P68400 whole entry): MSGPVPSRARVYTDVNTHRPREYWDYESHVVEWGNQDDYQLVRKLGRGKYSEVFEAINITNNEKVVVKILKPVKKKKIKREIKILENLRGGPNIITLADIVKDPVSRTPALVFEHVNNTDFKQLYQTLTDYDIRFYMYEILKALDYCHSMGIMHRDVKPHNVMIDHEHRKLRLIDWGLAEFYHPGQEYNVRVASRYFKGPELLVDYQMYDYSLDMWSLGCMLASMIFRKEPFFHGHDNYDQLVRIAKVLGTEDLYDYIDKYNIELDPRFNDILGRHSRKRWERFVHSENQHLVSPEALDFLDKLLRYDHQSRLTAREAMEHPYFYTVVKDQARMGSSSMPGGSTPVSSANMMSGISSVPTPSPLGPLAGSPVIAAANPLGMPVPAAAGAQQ

MAP3K3, sequence (Q99759 whole entry): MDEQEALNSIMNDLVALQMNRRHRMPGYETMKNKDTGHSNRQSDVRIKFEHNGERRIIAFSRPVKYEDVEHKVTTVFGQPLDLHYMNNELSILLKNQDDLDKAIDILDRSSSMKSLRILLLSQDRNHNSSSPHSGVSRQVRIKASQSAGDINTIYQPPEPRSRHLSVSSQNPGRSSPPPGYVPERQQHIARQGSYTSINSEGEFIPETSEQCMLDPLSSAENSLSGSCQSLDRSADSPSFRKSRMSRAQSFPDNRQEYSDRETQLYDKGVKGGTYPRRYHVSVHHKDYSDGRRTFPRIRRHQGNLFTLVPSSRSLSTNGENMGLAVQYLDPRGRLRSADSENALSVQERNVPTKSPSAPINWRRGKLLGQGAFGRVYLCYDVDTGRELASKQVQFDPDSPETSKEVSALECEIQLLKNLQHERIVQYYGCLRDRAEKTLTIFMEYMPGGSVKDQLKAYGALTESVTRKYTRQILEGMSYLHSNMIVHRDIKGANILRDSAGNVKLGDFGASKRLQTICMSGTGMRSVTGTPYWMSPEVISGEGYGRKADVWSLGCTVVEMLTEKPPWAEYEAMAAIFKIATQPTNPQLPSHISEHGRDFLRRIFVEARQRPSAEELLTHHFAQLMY
JNK2, sequence (P45984 whole entry): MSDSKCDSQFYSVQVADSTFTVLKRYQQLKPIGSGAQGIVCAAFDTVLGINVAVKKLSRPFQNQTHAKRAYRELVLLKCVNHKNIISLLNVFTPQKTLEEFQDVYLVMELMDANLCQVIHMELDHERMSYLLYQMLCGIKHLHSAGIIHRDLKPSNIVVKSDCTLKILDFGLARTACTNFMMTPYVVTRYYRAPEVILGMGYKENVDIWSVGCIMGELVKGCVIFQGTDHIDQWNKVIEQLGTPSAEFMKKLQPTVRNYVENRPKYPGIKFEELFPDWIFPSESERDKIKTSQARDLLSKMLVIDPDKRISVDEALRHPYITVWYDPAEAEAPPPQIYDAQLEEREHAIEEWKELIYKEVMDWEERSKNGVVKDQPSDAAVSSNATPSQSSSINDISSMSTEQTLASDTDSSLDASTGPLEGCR
Wee1, sequence (P30291 whole entry): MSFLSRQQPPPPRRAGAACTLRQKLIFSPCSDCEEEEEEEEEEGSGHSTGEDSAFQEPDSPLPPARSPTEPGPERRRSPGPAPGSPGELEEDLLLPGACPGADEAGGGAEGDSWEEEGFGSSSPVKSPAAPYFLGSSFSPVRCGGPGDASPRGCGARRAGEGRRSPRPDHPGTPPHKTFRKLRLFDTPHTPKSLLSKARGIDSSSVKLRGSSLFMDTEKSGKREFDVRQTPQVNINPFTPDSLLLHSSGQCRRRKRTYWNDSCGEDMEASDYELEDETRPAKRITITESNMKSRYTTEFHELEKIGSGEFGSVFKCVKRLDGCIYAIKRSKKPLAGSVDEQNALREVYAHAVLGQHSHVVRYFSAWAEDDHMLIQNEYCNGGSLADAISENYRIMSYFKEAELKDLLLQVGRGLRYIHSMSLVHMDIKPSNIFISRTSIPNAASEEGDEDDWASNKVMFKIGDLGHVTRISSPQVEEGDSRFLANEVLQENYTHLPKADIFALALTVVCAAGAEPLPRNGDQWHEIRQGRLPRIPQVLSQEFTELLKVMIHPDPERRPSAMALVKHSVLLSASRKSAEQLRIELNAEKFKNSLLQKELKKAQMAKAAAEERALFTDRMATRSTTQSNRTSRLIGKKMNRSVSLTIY
MLK3, sequence (Q16584 whole entry): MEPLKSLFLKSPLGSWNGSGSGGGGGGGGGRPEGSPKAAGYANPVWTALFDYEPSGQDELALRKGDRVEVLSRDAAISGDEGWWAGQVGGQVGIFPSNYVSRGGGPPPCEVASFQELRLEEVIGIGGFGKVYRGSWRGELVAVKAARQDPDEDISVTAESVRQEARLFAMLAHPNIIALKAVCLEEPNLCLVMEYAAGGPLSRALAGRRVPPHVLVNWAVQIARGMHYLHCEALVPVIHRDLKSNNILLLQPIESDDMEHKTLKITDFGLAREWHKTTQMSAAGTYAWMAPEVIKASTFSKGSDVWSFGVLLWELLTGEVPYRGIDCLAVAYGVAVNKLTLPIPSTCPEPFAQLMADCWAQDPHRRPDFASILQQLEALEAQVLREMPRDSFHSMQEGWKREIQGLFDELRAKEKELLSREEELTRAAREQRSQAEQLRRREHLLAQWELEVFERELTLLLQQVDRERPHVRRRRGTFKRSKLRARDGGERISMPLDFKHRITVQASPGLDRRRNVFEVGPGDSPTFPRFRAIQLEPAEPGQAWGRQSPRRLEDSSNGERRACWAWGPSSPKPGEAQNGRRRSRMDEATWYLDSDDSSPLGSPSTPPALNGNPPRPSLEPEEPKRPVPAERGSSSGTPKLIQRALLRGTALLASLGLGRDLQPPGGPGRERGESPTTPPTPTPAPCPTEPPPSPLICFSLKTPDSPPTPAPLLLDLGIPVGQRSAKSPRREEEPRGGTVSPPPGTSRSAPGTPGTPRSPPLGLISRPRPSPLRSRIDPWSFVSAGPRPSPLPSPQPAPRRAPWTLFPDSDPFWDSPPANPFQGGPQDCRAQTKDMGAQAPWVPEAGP
RSK2, sequence (P51812 whole entry): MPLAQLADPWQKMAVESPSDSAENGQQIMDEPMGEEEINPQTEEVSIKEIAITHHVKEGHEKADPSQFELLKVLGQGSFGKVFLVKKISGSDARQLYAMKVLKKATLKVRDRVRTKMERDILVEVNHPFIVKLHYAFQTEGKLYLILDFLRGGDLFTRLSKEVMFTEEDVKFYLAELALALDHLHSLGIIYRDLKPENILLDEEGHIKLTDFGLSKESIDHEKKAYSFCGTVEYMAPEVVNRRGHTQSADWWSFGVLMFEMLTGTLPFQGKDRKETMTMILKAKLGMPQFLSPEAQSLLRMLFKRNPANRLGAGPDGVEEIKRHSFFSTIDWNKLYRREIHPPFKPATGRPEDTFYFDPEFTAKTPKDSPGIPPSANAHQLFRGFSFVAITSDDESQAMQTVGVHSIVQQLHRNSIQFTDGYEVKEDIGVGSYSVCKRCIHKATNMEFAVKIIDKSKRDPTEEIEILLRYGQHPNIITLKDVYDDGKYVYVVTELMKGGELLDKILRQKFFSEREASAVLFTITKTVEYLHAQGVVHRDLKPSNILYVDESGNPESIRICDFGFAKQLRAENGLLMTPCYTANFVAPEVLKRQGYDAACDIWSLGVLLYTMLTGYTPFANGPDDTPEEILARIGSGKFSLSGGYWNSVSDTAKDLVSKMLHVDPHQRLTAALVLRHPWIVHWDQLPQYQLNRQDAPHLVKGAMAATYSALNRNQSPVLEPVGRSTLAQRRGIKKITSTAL

Regarding `CS(=O)(=O)Nc1ccccc1Nc1nc(Nc2cccc(OCCN)c2)ncc1Cl` [CZC31326, N-(2-(2-(3-(2-aminoethoxy)phenylamino)-5-chloropyrimidin-4-ylamino)phenyl)methanesulfonamide], the inhibition at 10 µM at MAP3K3 worked out at 97.6%; at Wee1 it was 98.2%; on PKCa, 96.2%; on MLK4, 95%; at RSK2, 96.7%; at MAP3K4 it was 97.2%. Moreover, the inhibition at 10 µM at AurB amounted to 95%; at CK2a1, 97.9%. Moreover, the Competition % at MST1 is 97.7%; on JNK2 it was 87.8%; at MLK3, 96.5%.

The values above are taken from patent publication US20120270237A9, “METHODS FOR THE IDENTIFICATION OF KINASE INTERACTING MOLECULES AND FOR THE PURIFICATION OF KINASE PROTEINS” (Cellzone AG, priority 2009, published 2012).
